Assay results as given in US20080118475A1, “Model System for Testing the Efficacy of Pharmaceutical Preparation on Inflammatory Processes in the Nervous System” (KEYNEUROTEK AG, priority 2004, published 2008).
“Also recorded” adds a separate entry of the source.

B1: M-CSF: pro-inflammatory cytokin that activates microglia (protein, UniProt P09603 33-554, looked up)
Macrophage colony-stimulating …: EEVSEYCSHMIGSGHLQSLQRLIDSQMETSCQITFEFVDQEQLKDPVCYLKKAFLLVQDIMEDTMRFRDNTPNAIAIVQLQELSLRLKSCFTKDYEEHDKACVRTFYETPLQLLEKVKNVFNETKNLLDKDWNIFSKNCNNSFAECSSQDVVTKPDCNCLYPKAIPSSDPASVSPHQPLAPSMAPVAGLTWEDSEGTEGSSLLPGEQPLHTVDPGSAKQRPPRSTCQSFEPPETPVVKDSTIGGSPQPRPSVGAFNPGMEDILDSAMGTNWVPEEASGEASEIPVPQGTELSPSRPGGGSMQTEPARPSNFLSASSPLPASAKGQQPADVTGTALPRVGPVRPTGQDWNHTPQKTDHPSALLRDPPEPGSPRISSLRPQGLSNPSTLSAQPQLSRSHSSGSVLPLGELEGRRSTRDRRSPAEPEGGPASEGAARPLPRFNSVPLTDTGHERQSEGSFSPQLQESVFHLLVPSVILVLLAVGGLLFYRWRRRSHQEPQRADSPLEQPEGSPLTQDDRQVELPV

Test system: organo-typical cultures of the hippocampus
Experiment: Inflammation-provoked degeneration of organo-typical hippocampal slice cultures, propidium iodide fluorescence
Type: cell-based, Sprague-Dawley rats
Details: for protection of the neural tissue against degeneration (propidium iodide staining): reagent incubated over 48 hours together with LPS (200 ηg/ml) and GM-CSF (1 ηg/ml); for degeneration of the tissue / neurons (propidium iodide staining), cytokin in combination with LPS: cytokin plus LPS (200 μm/ml [sic] in the source, 200 ηg/ml), 48 hours, M-CSF 10 ηg/ml, IFNy 30 ηg/ml, GM-CSF 1 ηg/ml
Method: For the preparation of organo-typical cultures of the hippocampus, 7 to 8 day-old Sprague-Dawley rats were used. From the isolated hippocampus of these animals ca. 400 μm thick slices were prepared, each approximately comprising 20 cell layers. […] The slices were able to be cultured in 6-pore culture plates for up to 3 weeks through changing the medium below the membrane.
All the incubations were carried out in a medium that contained a minimum of 50% of essential medium/HEPES, 25% of Hank's balanced salt solution and 25% of heat-inactivated horse serum.
The degeneration of the tissue was rendered visible by means of a propidium iodide-fluorescence of the cells, which, because of the injury sustained, could no longer prevent, […], diffusion into the cell nucleus and staining of the DNA. Consequently, the red fluorescence above a threshold value was evaluated as the signal for the degeneration of cells. The degree of degeneration per slice was expressed as the percentage of the total surface that the red values lay above the threshold.
Here, both reagents were incubated over 48 hours with LPS and GM-CSF. Thus, for working in this assay, both steroidal as well as non-steroidal reagents were used.
Organo-typical cultures were incubated with LPS either alone or in combination with the pro-inflammatory cytokins GM-CSF and M-CSF over 48 hours. The injury to the tissue (cell mortality) was established by means of propidium iodide staining (A) and quantified by means of an automated picture analysis (B).

Molecule | protection of the neural tissue against degeneration (propidium iodide staining) | degeneration of the tissue / neurons (propidium iodide staining), cytokin in combination with LPS | degeneration / injury of the tissue (propidium iodide staining), substance alone (incubated alone over 48 hours)
CC(=O)Oc1ccccc1C(=O)O [acetyl salicylic acid, reference compound] | complete protection of the neural tissue; also recorded: protected | – | –
CC(C)Cc1ccc(C(C)C(=O)O)cc1 (stereo not drawn) [iboprufen, reference compound] | protective activity | – | –
GM-CSF: Granulocyte Macrophage Colony-Stimulating Factor, pro-inflammatory cytokin | – | dramatic degeneration of neurons; also recorded: maximum injury | did not lead to any detectable injury
IFNy: pro-inflammatory cytokin that activates the microglia and can induce MHC expression | – | very strong degeneration of the tissue | –
B1 | – | dramatic degeneration of neurons; also recorded: less precipitous | –
